Values quoted from earlier work, collected in US20230158047A1, “METHODS AND COMPOSITIONS FOR TREATING PROSTATE CANCER” (Tavanta Therapeutics Hungary Incorporated, priority 2020, published 2023).

System: PSA levels
Conditions: phase 3, patients who failed prior chemotherapy with taxanes

## CC(=O)O[C@H]1CC[C@@]2(C)C(=CC[C@@H]3[C@@H]2CC[C@]2(C)C(c4cccnc4)=CC[C@@H]32)C1 [abiraterone acetate, 3β-acetoxy-17-(3-pyridyl)-androsta-5,16-diene]
  patients with at least a 50% decline from baseline in PSA levels: 38%
